Experimental data reported in patent publication US7378494B2, “Pituitary adenylate cyclase activating peptide (PACAP) receptor (VPAC2) agonist peptide” (Bayer HealthCare AG, priority 2002, dated 2008).

Target: T1, VPAC1 (Homo sapiens, UniProt P32241)
T1 sequence (P32241 31-457): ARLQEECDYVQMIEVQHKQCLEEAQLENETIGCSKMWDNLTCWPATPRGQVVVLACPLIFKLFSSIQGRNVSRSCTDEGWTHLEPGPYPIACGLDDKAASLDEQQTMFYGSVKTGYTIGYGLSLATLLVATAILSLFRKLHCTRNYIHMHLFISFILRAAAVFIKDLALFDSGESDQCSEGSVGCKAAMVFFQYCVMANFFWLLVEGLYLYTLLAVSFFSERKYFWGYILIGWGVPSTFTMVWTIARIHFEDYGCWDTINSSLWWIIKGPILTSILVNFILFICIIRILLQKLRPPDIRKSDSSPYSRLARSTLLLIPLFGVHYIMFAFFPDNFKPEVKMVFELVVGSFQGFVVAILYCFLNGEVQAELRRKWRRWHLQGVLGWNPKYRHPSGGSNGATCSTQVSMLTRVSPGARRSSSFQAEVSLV
Experiment: Cyclic AMP SPA, cells expressing VPAC1
Type: cell-based

PACAP-27
agonist activity on VPAC1 (in words): potent agonist
